The values that follow come from publication PMC11641365, “Evaluation of In Vitro Biological Activity of Flavanone/Chromanone Derivatives: Molecular Analysis of Anticancer Mechanisms in Colorectal Cancer” (International Journal of Molecular Sciences, 2024).

One assay concerns HCT 116. Description: MTT cell viability assay. Type of assay: cell-based. Particulars: Homo sapiens, 24 h incubation with compound, mean ± SD of three experiments, read-out: Cytotoxic effect, IC50. How it is done:
The cytotoxic activity of the 3-benzylideneflavanones, 3-benzylidenechromanones derivatives (compounds 1, 2, 3, 4, 5) and 5′-(3-methoxyphenyl)-2-phenyl-4′,5′-dihydro-4H-spiro[chromano-3,3′-pirazol]-4-one (compound 3a) was evaluated using the MTT assay (4,5-dimethylthiazol-2-yl)-2,5-diphenyltetrazoliumbromide), a colorimetric method that quantifies cell viability.
Cell viability was determined using the metabolic microplate spectrophotometric assay with Methylthiazolyl diphenyltetrazolium bromide (MTT) (Sigma-Aldrich; St. Louis, MO, USA). The MTT method belongs to metabolic tests for determining cell viability and consists of measuring the absorbance of a violet solution of formazan, a product of the reduction of a water-soluble yellow MTT by oxidoreductive enzymes (mainly mitochondrial succinate dehydrogenase) of living cells. The amount of the reaction product (water-insoluble formazan crystals) is proportional to the number of living and metabolically active cells in the sample. In the case of damaged or dead cells, formazan is formed in smaller amounts, or it is not formed.
The appropriate number of cells for a given cell line (6–8 × 10^3 cells/mL) were seeded onto colorless, sterile 96-well microplates (Nunc, Roskilde, Denmark) in the number appropriate for a given cell line. After 24 h of culture, various concentrations of the studied compounds (10^−7–10^−5 M) freshly prepared in DMSO (final concentration DMS < 0.1%) and diluted with complete culture medium were added and incubated in a CO2 incubator for 24 h. After this time, the medium was removed; the cell monolayer was washed twice with sterile PBS solution; and fresh culture medium was added to the microplate wells. After 48 h of cell culture, the MTT test was performed. A volume of 50 μL of tetrazolium salt solution (final concentration 0.05 mg/mL) was added to each microplate well. The microplate was placed for 3–4 h (depending on the cell line) in a CO2 incubator. After incubation, 100 μL of DMSO was added to the wells of the microplate to dissolve the purple formazan crystals formed in the living cell environment. The absorbance of the formazan solution, after gentle mixing, was read at a wavelength of λ = 580 nm and a reference wavelength of λ = 720 nm (Biotek Power Wave HT, Biotek Instruments, Winooski, VT, USA). The percentage of living cells was calculated by comparing the absorbance value of the tested samples with the absorbance value of the control (cells not treated with compounds). The absorbance of the control was taken as 100%.

Assay [1] deals with HT-29. The assay can be described thus: Superoxide anion level, DHE probe. The following applies: compound at IC50, 24 h, vs control. It counts as cell-based, human. How it is done: Superoxide anion (O2^•−) levels were quantified using a microplate spectrofluorometric assay with dihydroethidium (DHE) (Life Technologies, Carlsbad, CA, USA). DHE is a well-established fluorogenic probe for intracellular superoxide detection. […] The reaction between superoxide and DHE produces a highly specific red fluorescent product, 2-hydroxyethidium (2-OH-E ^+).
(§1) Cells were seeded in black 96-well fluorometric microplates at a density of 10 × 10^3 cells/mL. […] Following compound incubation, the medium was removed, and the cell monolayers were washed twice with HBSS (140 mM NaCl, 5 mM KCl, 0.8 mM MgCl2, 1.8 mM CaCl2, 1 mM Na2HPO4, 10 mM HEPES, and 1% glucose). A volume of 50 µL of DHE solution in HBSS (final concentration 5 μM) was added to each well, and the cells were incubated for 30 min in the dark at 37 °C. After incubation with the DHE, fluorescence measurements were conducted using a Perkin-Elmer LS-5B spectrofluorometer (Waltham, MA, USA) at the following excitation and fluorescence emission wavelengths: λex = 498 nm/λem = 582 nm. The fluorescence intensity of control cells was arbitrarily assigned a value of 100%. The results were expressed as percentages of control, calculated by comparing the fluorescence intensity ratio of the test samples to controls (100%). The fluorescence of samples was denoted as Δf in relation to the control.

Assay [2] relates to HT-29. Description: Hydrogen peroxide level, H2DCFDA probe. The following applies: compound at IC50, 24 h, vs control. It counts as cell-based, human. The protocol:
Cellular H2O2 levels were assessed using 2′,7′-dichlorodihydrofluorescein diacetate (H2DCFDA, Sigma-Aldrich, St. Louis, MO, USA), a well-established fluorogenic probe for intracellular hydrogen peroxide detection. H2DCFDA readily diffuses across the cell membrane and is subsequently hydrolyzed by intracellular esterases to non-fluorescent H2DCF. Oxidation of H2DCF by ROS generates highly fluorescent 2′,7′-dichlorofluorescein (DCF), which accumulates in the cytosol. […] The fluorescence intensity of DCF is directly proportional to the concentration of ROS within the cell.
as §1, with “H2DCFDA” for “DHE”, “H2DCFDA,” for “DHE,”, “(MA,” for “(Waltham, MA,”, “522” for “582”

The term IC50 denotes the midpoint of a concentration-inhibition curve.

As for `COc1cccc(/C=C2/C(=O)c3ccccc3OC2c2ccccc2)c1` (stereo not drawn) [Compound 3], the IC50 with HCT 116 turned out to be 18.6 ± 1.4 µM.

As for `O=C1/C(=C/c2ccccc2)C(c2ccccc2)Oc2ccccc21` (stereo not drawn) [Compound 5], in the assay on HT-29 [1], the “Increase in O2−• (superoxide anion) levels” value was ~35%. Besides, the “Increase in H2O2 levels” value in the assay on HT-29 [2] is on record as “around 15%”.

On to `O=C1/C(=C/c2ccccc2)COc2ccccc21` [Compound 1], for which the IC50 with HCT 116 is 10.1 ± 1.3 µM. Moreover, the “Increase in O2−• (superoxide anion) levels” value with HT-29 [1] is reported as “approximately 40%”. Further, the “Increase in H2O2 levels” value in the assay with HT-29 [2] was “approximately 25%”.
